Laboratory results published in patent US20250213547A1, “METHODS OF TREATING NEUROLOGICAL DISEASES” (priority 2022, published 2025).
Read-outs that look alike come from different tables or passages of the source.

Test: Healthy Japanese subjects, Part 2 (100, 200, 300 mg BID up-titration): PK of TAK-935 and M-I
Assay type: in vivo, human
Conditions: human, plasma, oral; for Vd/F: read-out: Vz/F; for half-life: read-out: t1/2z (terminal disposition phase half-life) (converted)
Procedure: This study consisted of 2 parts, and was a randomized, double-blind, placebo-controlled study to assess safety, tolerability, and PK and PD of TAK-935 when administered orally in healthy Japanese subjects.
TAK-935 or placebo was administered to the 9 subjects at the dose of 100 mg BID from Day 1 to Day 7, then 200 mg BID from Day 8 to Day 14, and finally 300 mg BID from Day 15 to Day 21, and safety, PK and PD were investigated. The planned dose levels of TAK-935 to be evaluated are outlined in Table 40a.
After the screening visit, eligible participants checked—in on Day-2. On Day 1, eligible participants were randomized 6:3 to TAK-935 or placebo in double-blinded fashion. No stratification variables were used for randomization. Study drug was administered every day by oral administration of multiple dosing with up-titration of TAK-935 to 9 subjects firstly at 100 mg BID from Day 1 to Day 7, then at 200 mg BID from Day 8 to Day 14, and finally at 300 mg BID from Day 15 to Day 21, successively. The subjects were discharged on Day 24. Intensive PK samplings were performed on Day 1, Day 7, Day 14 and Day 21.
Subjects received multiple oral doses of TAK-935 or placebo escalating from 100 mg BID, 200 mg BID, and then to 300 mg BID with 150 mL of water for 7 days per each dose level. For the morning dose, subjects were kept fasted for at least 8 hours before administration and up to 2 hours after administration. The evening dose was administered at any time between 8 hours and 12 hours after the morning dose, but prior to the evening meal except for Days 1, 7, 14, and 21. On Days 1, 7, 14, and 21, the evening dose was administered 12 hours after the morning dose and prior to the evening meal. • Identity of Study Drugs • Study drug refers to TAK-935 100 mg tablet and matching placebo. • Compound: Code name: TAK-935 • Dosage forms: TAK-935 100 mg tablets and matching placebo tablets were used in this study. The TAK-935 tablets and placebo tablets were yellow-red film-coated tablets for oral administration.
Blood samples for PK analysis of TAK-935 and its metabolites (M-I) were collected into blood collection tubes (vacutainer) containing the anticoagulant K2EDTA (Table 40e and Table 40f).
The PK parameters of TAK-935 and its metabolites (M-I) were determined from the concentration-time profiles for all evaluable subjects. Actual sampling times, rather than scheduled sampling times, were used in all computations involving sampling times. The following PK parameters were calculated from plasma concentrations of TAK-935 and its metabolites (M-I), unless otherwise specified: […]

[1] = 100 mg, Day 7, TAK-935 100 mg BID, mean
[2] = 200 mg, Day 14, TAK-935 200 mg BID, mean
[3] = 300 mg, Day 21, TAK-935 300 mg BID, mean

O=C(c1cccnc1-c1ccncc1)N1CCC(O)(Cc2ccccc2)CC1 [soticlestat]
AUC (100 mg, Day 7 (100 mg BID), Part 2, Median, read-out: AUCtau): 226 ng·h/mL
Cmax (100 mg, Day 7 (100 mg BID), Part 2, Median, read-out: Cmax): 148 ng/mL
Vd/F (100 mg, Day 7 (100 mg BID), Part 2, Median): 2600 L
AUC(0-t) [1]: 224 ng·h/mL
AUC (100 mg, Day 7, TAK-935 100 mg BID, mean, read-out: AUCτ (AUC during a dosing interval)): 224 ng·h/mL
Cmax (100 mg, Day 7, TAK-935 100 mg BID, mean, read-out: Cmax): 204 ng/mL
Vd/F [1]: 2940 L
half-life [1]: 218 min
Tmax (100 mg, Day 7, TAK-935 100 mg BID, median, read-out: tmax): 30 min
Tmax (100 mg, TAK-935, Day 1, 100 mg BID, read-out: Median Tmax): 45 min
AUC (100 mg, TAK-935, Day 1, first dose 100 mg BID, read-out: Mean AUCτ): 232 ng·h/mL
Cmax (100 mg, TAK-935, Day 1, first dose 100 mg BID, read-out: mean Cmax): 255 ng/mL
AUC (100 mg, TAK-935, Day 7, 100 mg BID, read-out: Mean AUCτ): 224 ng·h/mL
Cmax (100 mg, TAK-935, Day 7, 100 mg BID, read-out: mean Cmax): 204 ng/mL
AUC (200 mg, Day 14 (200 mg BID), Part 2, Geo Mean, read-out: AUC1ast): 788 ng·h/mL
AUC (200 mg, Day 14 (200 mg BID), Part 2, Geo Mean, read-out: AUCtau): 789 ng·h/mL
Cmax (200 mg, Day 14 (200 mg BID), Part 2, Geo Mean, read-out: Cmax): 836 ng/mL
Tmax (200 mg, Day 14 (200 mg BID), Part 2, Mean, read-out: Tmax): 40 min
AUC (200 mg, Day 14 (200 mg BID), Part 2, Median, read-out: AUC1ast): 794 ng·h/mL
AUC (200 mg, Day 14 (200 mg BID), Part 2, Median, read-out: AUCtau): 794 ng·h/mL
Cmax (200 mg, Day 14 (200 mg BID), Part 2, Median, read-out: Cmax): 1030 ng/mL
Vd/F (200 mg, Day 14 (200 mg BID), Part 2, Median): 1030 L
AUC(0-t) [2]: 860 ng·h/mL
AUC (200 mg, Day 14, TAK-935 200 mg BID, mean, read-out: AUCτ (AUC during a dosing interval)): 861 ng·h/mL
Cmax (200 mg, Day 14, TAK-935 200 mg BID, mean, read-out: Cmax): 980 ng/mL
Vd/F [2]: 1090 L
half-life [2]: 157 min
Tmax (200 mg, Day 14, TAK-935 200 mg BID, median, read-out: tmax): 30 min
AUC (200 mg, TAK-935, Day 14, 200 mg BID, read-out: Mean AUCτ): 861 ng·h/mL
Cmax (200 mg, TAK-935, Day 14, 200 mg BID, read-out: mean Cmax): 980 ng/mL
AUC (300 mg, Day 21 (300 mg BID), Part 2, Geo Mean, read-out: AUC1ast): 1960 ng·h/mL
AUC (300 mg, Day 21 (300 mg BID), Part 2, Geo Mean, read-out: AUCtau): 1960 ng·h/mL
Cmax (300 mg, Day 21 (300 mg BID), Part 2, Geo Mean, read-out: Cmax): 1940 ng/mL
Tmax (300 mg, Day 21 (300 mg BID), Part 2, Mean, read-out: Tmax): 32.5 min
AUC (300 mg, Day 21 (300 mg BID), Part 2, Median, read-out: AUC1ast): 2040 ng·h/mL
AUC (300 mg, Day 21 (300 mg BID), Part 2, Median, read-out: AUCtau): 2040 ng·h/mL
Cmax (300 mg, Day 21 (300 mg BID), Part 2, Median, read-out: Cmax): 1600 ng/mL
Vd/F (300 mg, Day 21 (300 mg BID), Part 2, Median): 620 L
AUC(0-t) [3]: 2020 ng·h/mL
AUC (300 mg, Day 21, TAK-935 300 mg BID, mean, read-out: AUCτ (AUC during a dosing interval)): 2020 ng·h/mL
Cmax (300 mg, Day 21, TAK-935 300 mg BID, mean, read-out: Cmax): 2060 ng/mL
Vd/F [3]: 640 L
half-life [3]: 176 min
Tmax (300 mg, Day 21, TAK-935 300 mg BID, median, read-out: tmax): 30 min
AUC (300 mg, TAK-935, Day 21, 300 mg BID, read-out: Mean AUCτ): 2020 ng·h/mL
Cmax (300 mg, TAK-935, Day 21, 300 mg BID, read-out: mean Cmax): 2060 ng/mL
Tmax (TAK-935, Day 7, Day 14 and Day 21, read-out: Median Tmax): 30 min
